Earlier results as cited in patent US20220409533A1, “LAG TIME REDUCTION/ICE SPRAY” (LTS LOHMANN THERAPIE-SYSTEME AG, priority 2019, published 2022).

Conditions: transdermal application

Structure (SMILES): CN1CCCC1c1cccnc1 (stereo not shown) [nicotine]
- resorption delay time (lag time): 6 h
